According to patent US20220033434A1, “ANDROGEN RECEPTOR NUCLEIC ACIDS AND USES THEREOF” (Avidity Biosciences, Inc., priority 2016, published 2022):
In the oligonucleotide strings, read from the 5' end, every base follows the letter of its sugar. An asterisk marks phosphorothioate; unmarked linkages are phosphodiester. Other units and linkages are bracketed, terminal groups are in braces. A string of capitals states the bases alone. d = 2'-deoxy (DNA); m = 2'-O-methyl; f = 2'-fluoro

Tests used:
Assay type in all cases: cell-based, human
AR FL(1) = assay: AR protein knock-down by Western blot after siRNA transfection in 22RV1 cells: AR FL(1); conditions: 5 nM siRNA, 50 h post transfection, compared to controls
Method: (§1) In some instances, a set of AR siRNAs were identified that were predicted to be specific in human and non-human primates (NHP) and cross-reactive with NHPs but not rodent AR mRNA. To identify AR siRNAs that regulate both full length AR and clinically relevant AR splice variants, the search for AR siRNAs was focused primarily, but not exclusively, on exons 1, 2 and 3 of the AR gene, which are common to most AR isoforms. The resulting set of 50 AR siRNAs (Tables 1-3) was assessed in two prostate cancer lines that express high levels of either clinically relevant AR splice variants (22RV1, ATCC) or a full length AR T877A LBD mutant (LNCaP, ATCC). The response of LNCaP tumors in xenograft models to AR antagonists is known to correlate well with clinical responses.
(§2) To monitor their ability to downregulate various AR isoforms, each siRNA was formulated at a single final concentration of 5 nM with a commercially-available transfection reagent (Lipofectamine RNAiMAX, Life Technologies) according to the manufacturer's “forward transfection” instructions. At 50 h (22RV1) and 72 h (LNCaP) post transfection, cells were harvested, and lysed in RIPA buffer (Pierce) supplemented with HALT protease inhibitors (Pierce) using standard procedures. The protein concentration was determined using a BCA protein concentration kit (Pierce). To monitor AR levels in these lysates, proteins (30 ug/lane) were separated by PAGE on BOLT 4-12% Bis-Tris PA gels (Life Technologies), transferred to nitrocellulose using an iBlot dry blot system (Thermo Fisher), and probed with specific antibodies against a region of the N-terminal domain of human AR that is common in known clinically relevant splice variants (N20, Santa Cruz Biotech). A second antibody against α-Tubulin was used as control (P16, Santa Cruz Biotech). Levels of these proteins in the respective cell lysates were quantified on an Odyssey imaging system (LICOR) using appropriate secondary antibodies linked to IRDyes (800CW, 680RD).

AR-SV(2) = assay: AR protein knock-down by Western blot after siRNA transfection in 22RV1 cells: AR-SV(2); conditions: 5 nM siRNA, 50 h post transfection, compared to controls
Method: as §1, §2

AR-SV(3) = assay: AR protein knock-down by Western blot after siRNA transfection in 22RV1 cells: AR-SV(3); conditions: 5 nM siRNA, 50 h post transfection, compared to controls
Method: as §1, §2

[1] = system: AR FL (full length AR T877A LBD mutant); assay: AR protein knock-down by Western blot after siRNA transfection in LNCaP cells: AR FL; conditions: 5 nM siRNA, 72 h post transfection, compared to controls
Method: as §1, §2

Row | Substance | % KD AR Protein 22RV1 AR FL(1) (AR FL(1)) [%] | % KD AR Protein 22RV1 AR-SV(2) (AR-SV(2)) [%] | % KD AR Protein 22RV1 AR-SV(3) (AR-SV(3)) [%] | % KD AR Protein LNCaP AR FL [1] [%]
1 | XD-01840: AR siRNA with chemical modification, Id # 2935; sense X05375 (SEQ ID NO: 205), antisense X05376 (SEQ ID NO: 206) (sense mUmCfCmGfAmAfGmGfAmAfAmAfAmUfUmGfUmCfCdT*dT; antisense fGfGmAfCmAfAmUfUmUfUmUfCmCfUmUfCmGfGmAdT*dT) | 89 | 89 | 75 | 97
2 | XD-01822: AR siRNA with chemical modification, Id # 2263; sense X05339 (SEQ ID NO: 169), antisense X05340 (SEQ ID NO: 170) (sense mCmCfCmAfCmGfCmUfCmGfCmAfUmCfAmAfGmCfUdT*dT; antisense fAfGmCfUmUfGmAfUmGfCmGfAmGfCmGfUmGfGmGdT*dT) | 34 | 33 | 41 | 88
3 | XD-01836: AR siRNA with chemical modification, Id # 2925; sense X05367 (SEQ ID NO: 197), antisense X05368 (SEQ ID NO: 198) (sense mAmUfUmGfAmUfAmAfAmUfUmCfCmGfAmAfGmGfAdT*dT; antisense fUfCmCfUmUfCmGfGmAfAmUfUmUfAmUfCmAfAmUdT*dT) | 87 | 83 | 73 | 91
4 | XD-01848: AR siRNA with chemical modification, Id # 3101; sense X05391 (SEQ ID NO: 221), antisense X05392 (SEQ ID NO: 222) (sense mGmUfCmAfCmAfCmAfUmUfGmAfAmGfGmCfUmAfUdT*dT; antisense fAfUmAfGmCfCmUfUmCfAmAfUmGfUmGfUmGfAmCdT*dT) | 87 | 31 | 27 | 101
5 | XD-01850: AR siRNA with chemical modification, Id # 3107; sense X05395 (SEQ ID NO: 225), antisense X05396 (SEQ ID NO: 226) (sense mCmAfUmUfGmAfAmGfGmCfUmAfUmGfAmAfUmGfUdT*dT; antisense fAfCmAfUmUfCmAfUmAfGmCfCmUfUmCfAmAfUmGdT*dT) | 86 | 14 | 5 | 82
6 | XD-01834: AR siRNA with chemical modification, Id # 2923; sense X05363 (SEQ ID NO: 193), antisense X05364 (SEQ ID NO: 194) (sense mCmUfAmUfUmGfAmUfAmAfAmUfUmCfCmGfAmAfGdT*dT; antisense fCfUmUfCmGfGmAfAmUfUmUfAmUfCmAfAmUfAmGdT*dT) | 90 | 91 | 79 | 91
7 | XD-01839: AR siRNA with chemical modification, Id # 2933; sense X05373 (SEQ ID NO: 203), antisense X05374 (SEQ ID NO: 204) (sense mAmUfUmCfCmGfAmAfGmGfAmAfAmAfAmUfUmGfUdT*dT; antisense fAfCmAfAmUfUmUfUmUfCmCfUmUfCmGfGmAfAmUdT*dT) | 76 | 62 | 56 | 93
8 | XD-01815: AR siRNA with chemical modification, Id # 1968; sense X05325 (SEQ ID NO: 155), antisense X05326 (SEQ ID NO: 156) (sense mGmCfCmCfCmAfUmUfGmGfCmCfGmAfAmUfGmCfAdT*dT; antisense fUfGmCfAmUfUmCfGmGfCmCfAmAfUmGfGmGfGmCdT*dT) | −10 | 5 | −15 | 91
9 | XD-01824: AR siRNA with chemical modification, Id # 2741; sense X05343 (SEQ ID NO: 173), antisense X05344 (SEQ ID NO: 174) (sense mUmGfCmCfAmGfGmGfAmCfCmAfUmGfUmUfUmUfGdT*dT; antisense fCfAmAfAmAfCmAfUmGfGmUfCmCfCmUfGmGfCmAdT*dT) | 3 | −32 | −44 | 45
10 | XD-01849: AR siRNA with chemical modification, Id # 3105; sense X05393 (SEQ ID NO: 223), antisense X05394 (SEQ ID NO: 224) (sense mCmAfCmAfUmUfGmAfAmGfGmCfUmAfUmGfAmAfUdT*dT; antisense fAfUmUfCmAfUmAfGmCfCmUfUmCfAmAfUmGfUmGdT*dT) | 86 | 7 | −40 | 92
11 | XD-01845: AR siRNA with chemical modification, Id # 2966; sense X05385 (SEQ ID NO: 215), antisense X05386 (SEQ ID NO: 216) (sense mUmCfGmGfAmAfAmUfGmUfUmAfUmGfAmAfGmCfAdT*dT; antisense fUfGmCfUmUfCmAfUmAfAmCfAmUfUmUfCmCfGmAdT*dT) | 92 | 92 | 72 | 99
12 | XD-01837: AR siRNA with chemical modification, Id # 2927; sense X05369 (SEQ ID NO: 199), antisense X05370 (SEQ ID NO: 200) (sense mUmGfAmUfAmAfAmUfUmCfCmGfAmAfGmGfAmAfAdT*dT; antisense fUfUmUfCmCfUmUfCmGfGmAfAmUfUmUfAmUfCmAdT*dT) | 87 | 94 | 86 | 91
13 | XD-01854: AR siRNA with chemical modification, Id # 3416; sense X05403 (SEQ ID NO: 233), antisense X05404 (SEQ ID NO: 234) (sense mUmGfAmUfCmUfGmGfUmUfUmUfCmAfAmUfGmAfGdT*dT; antisense fCfUmCfAmUfUmGfAmAfAmAfCmCfAmGfAmUfCmAdT*dT) | 95 | 38 | 46 | 93
14 | XD-01861: AR siRNA with chemical modification, Id # 3779; sense X05417 (SEQ ID NO: 247), antisense X05418 (SEQ ID NO: 248) (sense mGmAfGmCfGmUfGmGfAmCfUmUfUmCfCmGfGmAfAdT*dT; antisense fUfUmCfCmGfGmAfAmAfGmUfCmCfAmCfGmCfUmCdT*dT) | 90 | 11 | 51 | 99
15 | XD-01856: AR siRNA with chemical modification, Id # 3469; sense X05407 (SEQ ID NO: 237), antisense X05408 (SEQ ID NO: 238) (sense mGmUfGmUfCmCfGmAfAmUfGmAfGmGfCmAfCmCfUdT*dT; antisense fAfGmGfUmGfCmCfUmCfAmUfUmCfGmGfAmCfAmCdT*dT) | 77 | −61 | −74 | 99
16 | XD-01838: AR siRNA with chemical modification, Id # 2931; sense X05371 (SEQ ID NO: 201), antisense X05372 (SEQ ID NO: 202) (sense mAmAfAmUfUmCfCmGfAmAfGmGfAmAfAmAfAmUfUdT*dT; antisense fAfAmUfUmUfUmUfCmCfUmUfCmGfGmAfAmUfUmUdT*dT) | 85 | 65 | 67 | 88
17 | XD-01853: AR siRNA with chemical modification, Id # 3310; sense X05401 (SEQ ID NO: 231), antisense X05402 (SEQ ID NO: 232) (sense mAmCfGmAfCmCfAmGfAmUfGmGfCmUfGmUfCmAfUdT*dT; antisense fAfUmGfAmCfAmGfCmCfAmUfCmUfGmGfUmCfGmUdT*dT) | 91 | −43 | 13 | 99
